Measured values reported in ChEMBL document CHEMBL5291721, “A preclinical secondary pharmacology resource illuminates target-adverse drug reaction associations of marketed drugs” (Nat Commun, 2023).

Tests used:
[1] = target: T1, Prostaglandin G/H synthase 1 (Rattus norvegicus, UniProt Q63921); format: functional
T1 sequence (Q63921 whole entry): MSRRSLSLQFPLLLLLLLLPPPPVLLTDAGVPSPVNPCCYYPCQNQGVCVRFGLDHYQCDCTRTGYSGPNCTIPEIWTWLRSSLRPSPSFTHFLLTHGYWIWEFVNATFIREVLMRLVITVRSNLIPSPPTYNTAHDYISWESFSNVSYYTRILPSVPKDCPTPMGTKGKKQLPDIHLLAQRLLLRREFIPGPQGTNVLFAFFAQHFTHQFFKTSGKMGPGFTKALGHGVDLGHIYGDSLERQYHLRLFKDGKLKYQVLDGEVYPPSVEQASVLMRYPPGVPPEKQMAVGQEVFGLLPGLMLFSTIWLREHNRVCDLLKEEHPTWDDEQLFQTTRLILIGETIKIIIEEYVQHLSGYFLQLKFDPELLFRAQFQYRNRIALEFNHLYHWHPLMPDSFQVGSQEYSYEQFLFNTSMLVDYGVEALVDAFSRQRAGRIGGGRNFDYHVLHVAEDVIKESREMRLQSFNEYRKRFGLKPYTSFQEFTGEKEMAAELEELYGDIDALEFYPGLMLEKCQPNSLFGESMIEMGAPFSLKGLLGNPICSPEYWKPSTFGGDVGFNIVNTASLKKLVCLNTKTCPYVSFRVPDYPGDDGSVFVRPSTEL

Melanocortin receptor 3 = Melanocortin receptor 3 (Homo sapiens, UniProt P41968)
[2] = target: T2, Cholecystokinin receptor type A (Homo sapiens, UniProt P32238)
T2 sequence (P32238 whole entry): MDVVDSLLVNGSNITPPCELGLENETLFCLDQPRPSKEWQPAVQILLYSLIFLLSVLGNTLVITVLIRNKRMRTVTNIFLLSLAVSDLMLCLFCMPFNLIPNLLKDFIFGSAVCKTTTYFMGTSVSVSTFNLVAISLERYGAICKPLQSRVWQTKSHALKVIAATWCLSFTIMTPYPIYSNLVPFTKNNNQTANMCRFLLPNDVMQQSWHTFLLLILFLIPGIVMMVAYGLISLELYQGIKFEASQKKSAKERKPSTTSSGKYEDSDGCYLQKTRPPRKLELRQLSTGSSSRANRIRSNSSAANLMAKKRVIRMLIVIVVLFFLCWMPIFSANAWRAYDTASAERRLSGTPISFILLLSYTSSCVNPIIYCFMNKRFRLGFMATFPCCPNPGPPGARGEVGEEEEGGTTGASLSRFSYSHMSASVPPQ

Adenosine receptor A2a = Adenosine receptor A2a (Homo sapiens, UniProt P29274)
[3] = target: T3, Type-1 angiotensin II receptor (Homo sapiens, UniProt P30556)
T3 sequence (P30556 whole entry): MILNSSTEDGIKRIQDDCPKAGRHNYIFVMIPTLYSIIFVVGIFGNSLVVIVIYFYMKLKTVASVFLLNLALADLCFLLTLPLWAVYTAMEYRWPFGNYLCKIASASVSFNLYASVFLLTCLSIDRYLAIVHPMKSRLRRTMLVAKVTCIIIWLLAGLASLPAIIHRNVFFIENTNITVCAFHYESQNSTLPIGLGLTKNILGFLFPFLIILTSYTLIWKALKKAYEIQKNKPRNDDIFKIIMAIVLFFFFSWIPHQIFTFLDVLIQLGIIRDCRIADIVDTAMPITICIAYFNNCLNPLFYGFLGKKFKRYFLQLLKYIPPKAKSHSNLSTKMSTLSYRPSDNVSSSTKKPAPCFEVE

[4] = target: T4, 5-hydroxytryptamine receptor 2C (Homo sapiens, UniProt P28335)
T4 sequence (P28335 whole entry): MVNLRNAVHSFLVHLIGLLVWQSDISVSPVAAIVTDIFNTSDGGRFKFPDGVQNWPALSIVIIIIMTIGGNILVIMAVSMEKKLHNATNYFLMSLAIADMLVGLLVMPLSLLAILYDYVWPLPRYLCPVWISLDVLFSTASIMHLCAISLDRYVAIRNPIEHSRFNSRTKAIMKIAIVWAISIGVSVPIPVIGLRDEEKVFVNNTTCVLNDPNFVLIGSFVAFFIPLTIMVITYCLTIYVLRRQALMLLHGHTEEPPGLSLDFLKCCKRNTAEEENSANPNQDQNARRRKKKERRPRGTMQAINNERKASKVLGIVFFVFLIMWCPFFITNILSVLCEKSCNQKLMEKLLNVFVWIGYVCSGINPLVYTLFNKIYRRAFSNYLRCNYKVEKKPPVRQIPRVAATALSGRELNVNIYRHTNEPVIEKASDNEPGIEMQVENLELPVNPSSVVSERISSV

D(3) dopamine receptor = D(3) dopamine receptor (Homo sapiens, UniProt P35462)
Adenosine receptor A1 = target: T5, Adenosine receptor A1 (Homo sapiens, UniProt P30542)
T5 sequence (P30542 whole entry): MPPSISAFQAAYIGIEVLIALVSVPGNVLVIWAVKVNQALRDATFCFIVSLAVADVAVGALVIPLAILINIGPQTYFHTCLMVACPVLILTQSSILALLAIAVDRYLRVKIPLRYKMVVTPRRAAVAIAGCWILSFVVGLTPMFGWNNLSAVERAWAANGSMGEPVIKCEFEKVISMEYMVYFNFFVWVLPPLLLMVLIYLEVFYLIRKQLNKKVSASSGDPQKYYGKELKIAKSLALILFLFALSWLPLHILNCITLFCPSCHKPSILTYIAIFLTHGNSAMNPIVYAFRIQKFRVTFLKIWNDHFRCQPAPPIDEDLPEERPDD

[5] = target: Neuronal acetylcholine receptor subunit alpha-4 (Homo sapiens, UniProt P43681)
[6] = target: Gamma-aminobutyric acid receptor subunit alpha-1 (Rattus norvegicus, UniProt P62813); format: functional
Also: assay procedure not described here.

Neuronal acetylcholine receptor subunit alpha-4, sequence (P43681 whole entry): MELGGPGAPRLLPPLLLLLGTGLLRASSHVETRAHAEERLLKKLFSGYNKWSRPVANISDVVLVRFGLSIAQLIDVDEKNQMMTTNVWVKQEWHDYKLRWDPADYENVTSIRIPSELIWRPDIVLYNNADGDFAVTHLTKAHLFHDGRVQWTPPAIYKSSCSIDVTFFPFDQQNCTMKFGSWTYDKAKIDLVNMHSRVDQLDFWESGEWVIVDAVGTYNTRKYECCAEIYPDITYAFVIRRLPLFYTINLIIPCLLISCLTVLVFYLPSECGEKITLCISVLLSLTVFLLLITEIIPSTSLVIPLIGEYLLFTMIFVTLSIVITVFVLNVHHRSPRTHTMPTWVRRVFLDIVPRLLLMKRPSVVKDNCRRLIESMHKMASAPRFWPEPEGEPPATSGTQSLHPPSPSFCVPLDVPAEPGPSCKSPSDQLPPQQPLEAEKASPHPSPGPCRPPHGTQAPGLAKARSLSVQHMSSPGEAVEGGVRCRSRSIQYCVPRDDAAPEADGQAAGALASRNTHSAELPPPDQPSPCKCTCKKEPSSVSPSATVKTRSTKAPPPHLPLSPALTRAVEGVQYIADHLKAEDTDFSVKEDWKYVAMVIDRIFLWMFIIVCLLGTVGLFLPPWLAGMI
D(3) dopamine receptor, sequence (P35462 whole entry): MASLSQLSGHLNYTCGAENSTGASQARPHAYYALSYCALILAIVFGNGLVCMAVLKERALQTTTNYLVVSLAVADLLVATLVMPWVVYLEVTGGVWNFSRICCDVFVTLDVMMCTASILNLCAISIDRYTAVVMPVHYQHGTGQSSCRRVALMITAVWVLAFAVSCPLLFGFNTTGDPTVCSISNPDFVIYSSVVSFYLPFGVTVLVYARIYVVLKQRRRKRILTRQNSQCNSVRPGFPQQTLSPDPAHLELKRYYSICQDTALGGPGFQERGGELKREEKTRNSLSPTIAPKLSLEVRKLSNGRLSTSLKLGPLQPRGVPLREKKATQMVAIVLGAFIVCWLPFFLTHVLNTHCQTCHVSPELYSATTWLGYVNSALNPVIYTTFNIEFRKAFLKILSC
Melanocortin receptor 3, sequence (P41968 whole entry): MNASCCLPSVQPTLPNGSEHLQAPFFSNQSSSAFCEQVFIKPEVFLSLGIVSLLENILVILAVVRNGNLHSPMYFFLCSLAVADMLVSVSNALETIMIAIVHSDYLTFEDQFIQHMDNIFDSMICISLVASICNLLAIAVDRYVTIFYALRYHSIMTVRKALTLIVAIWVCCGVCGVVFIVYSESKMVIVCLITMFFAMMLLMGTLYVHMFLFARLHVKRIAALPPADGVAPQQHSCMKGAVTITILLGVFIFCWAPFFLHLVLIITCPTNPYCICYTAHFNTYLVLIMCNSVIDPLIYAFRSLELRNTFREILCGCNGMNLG
Adenosine receptor A2a, sequence (P29274 whole entry): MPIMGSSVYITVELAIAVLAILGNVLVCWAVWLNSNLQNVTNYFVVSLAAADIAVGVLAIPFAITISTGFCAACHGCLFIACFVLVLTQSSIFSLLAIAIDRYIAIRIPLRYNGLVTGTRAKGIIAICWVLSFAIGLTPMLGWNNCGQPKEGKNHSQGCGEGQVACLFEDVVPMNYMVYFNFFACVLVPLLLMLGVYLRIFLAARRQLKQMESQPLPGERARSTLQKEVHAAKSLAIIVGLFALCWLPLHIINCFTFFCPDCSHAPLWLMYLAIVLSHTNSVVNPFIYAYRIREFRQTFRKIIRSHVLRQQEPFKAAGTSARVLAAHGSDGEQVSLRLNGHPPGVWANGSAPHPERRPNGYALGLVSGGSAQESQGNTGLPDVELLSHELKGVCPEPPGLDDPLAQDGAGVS
Gamma-aminobutyric acid receptor subunit alpha-1, sequence (P62813 whole entry): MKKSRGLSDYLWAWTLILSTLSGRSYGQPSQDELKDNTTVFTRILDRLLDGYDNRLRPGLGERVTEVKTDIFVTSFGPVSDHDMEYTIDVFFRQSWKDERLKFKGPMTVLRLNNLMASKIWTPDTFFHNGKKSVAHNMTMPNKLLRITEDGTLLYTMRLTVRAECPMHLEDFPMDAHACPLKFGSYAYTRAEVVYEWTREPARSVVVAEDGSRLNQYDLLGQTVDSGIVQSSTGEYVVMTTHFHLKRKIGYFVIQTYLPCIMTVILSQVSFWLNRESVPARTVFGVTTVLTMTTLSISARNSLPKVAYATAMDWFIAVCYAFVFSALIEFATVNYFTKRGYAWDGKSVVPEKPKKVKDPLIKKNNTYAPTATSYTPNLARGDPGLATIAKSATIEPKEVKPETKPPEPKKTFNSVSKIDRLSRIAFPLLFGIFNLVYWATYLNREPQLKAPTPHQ

| AC50 [1] | AC50 (Melanocortin receptor 3) | AC50 [2] | AC50 (Adenosine receptor A2a) | AC50 [3] | AC50 [4] | AC50 (D(3) dopamine receptor) | AC50 (Adenosine receptor A1) | AC50 [5] | AC50 [6] | SMILES |
| --- | --- | --- | --- | --- | --- | --- | --- | --- | --- | --- |
| > 30 µM | > 30 µM | > 30 µM | > 30 µM | > 30 µM | > 30 µM | > 30 µM | > 30 µM | > 30 µM | > 10 µM | NC(=O)c1ncn([C@@H]2O[C@H](CO)[C@@H](O)[C@H]2O)c1O [MIZORIBINE] |
| > 30 µM | > 30 µM | > 30 µM | > 30 µM | > 30 µM | > 30 µM | > 30 µM | > 30 µM | > 30 µM | > 30 µM | COc1ccc2c(c1)C(=O)N(CCc1ccc(S(=O)(=O)NC(=O)NC3CCCCC3)cc1)C(=O)C2(C)C [GLIQUIDONE] |
| 12.7 µM | > 10 µM | > 10 µM | > 30 µM | > 10 µM | > 10 µM | > 30 µM | 15.6 µM | > 10 µM | > 10 µM | Cc1ccc(C(=O)c2cc(O)c(O)c([N+](=O)[O-])c2)cc1 [TOLCAPONE] |
| > 30 µM | > 30 µM | > 30 µM | > 30 µM | > 30 µM | > 10 µM | > 30 µM | > 30 µM | > 30 µM | > 30 µM | N[C@@H](C(=O)N[C@@H]1C(=O)N2C(C(=O)O)=C(Cl)CS[C@H]12)c1ccccc1 [CEFACLOR ANHYDROUS] |

More lines, now with the values behind:

| SMILES | AC50 [1] | AC50 (Melanocortin receptor 3) | AC50 [2] | AC50 (Adenosine receptor A2a) | AC50 [3] | AC50 [4] | AC50 (D(3) dopamine receptor) | AC50 (Adenosine receptor A1) | AC50 [5] | AC50 [6] |
| --- | --- | --- | --- | --- | --- | --- | --- | --- | --- | --- |
| CN(CCOc1ccc(NS(C)(=O)=O)cc1)CCc1ccc(NS(C)(=O)=O)cc1 [DOFETILIDE] | > 30 µM | > 30 µM | > 30 µM | > 30 µM | 9.5 µM | > 30 µM | 0.78 µM | > 30 µM | > 10 µM | > 10 µM |
| CC(C)NCC(O)COc1ccc(COCCOC(C)C)cc1 (stereo not given) [BISOPROLOL] | > 30 µM | > 30 µM | > 30 µM | > 30 µM | > 30 µM | > 30 µM | > 30 µM | > 30 µM | > 10 µM | > 10 µM |
| COC(=O)N[C@H](C(=O)N1CCC[C@H]1c1nc(-c2ccc(-c3ccc(-c4c[nH]c([C@@H]5CCCN5C(=O)[C@@H](NC(=O)OC)C(C)C)n4)cc3)cc2)c[nH]1)C(C)C | > 30 µM | > 30 µM | > 30 µM | > 30 µM | > 30 µM | > 30 µM | > 30 µM | > 30 µM | > 30 µM | > 30 µM |
| COc1cc(Nc2c(C#N)cnc3cc(OCCCN4CCN(C)CC4)c(OC)cc23)c(Cl)cc1Cl [BOSUTINIB] | > 30 µM | 18.1 µM | > 30 µM | > 30 µM | > 30 µM | 7 µM | 5.6 µM | > 30 µM | > 10 µM | > 10 µM |
| Nc1nc(N)c2nc(-c3ccccc3)c(N)nc2n1 | > 30 µM | > 30 µM | > 30 µM | > 30 µM | > 30 µM | > 30 µM | > 30 µM | > 30 µM | > 30 µM | > 30 µM |
| CC(C)(C(=O)c1cccnc1)c1cccnc1 [METYRAPONE] | > 10 µM | > 10 µM | > 10 µM | > 10 µM | > 10 µM | > 30 µM | > 30 µM | > 10 µM | > 10 µM | > 10 µM |
| Oc1ncnc2[nH]ncc12 [ALLOPURINOL] | > 30 µM | > 30 µM | > 30 µM | > 30 µM | > 30 µM | > 30 µM | > 10 µM | > 30 µM | > 10 µM | > 10 µM |
| C[C@H]1O[C@H](O[C@H]2[C@H](O)[C@@H](O)[C@@H](O[C@H]3[C@H](O)[C@@H](O)C(O)O[C@@H]3CO)O[C@@H]2CO)[C@H](O)[C@@H](O)[C@@H]1N[C@H]1C=C(CO)[C@@H](O)[C@H](O)[C@H]1O (stereo not given in full) [ACARBOSE] | > 30 µM | > 30 µM | > 30 µM | > 30 µM | > 30 µM | > 30 µM | > 10 µM | > 30 µM | > 30 µM | > 10 µM |
| OCc1cc([C@@H](O)CNCCCCCCOCCOCc2c(Cl)cccc2Cl)ccc1O [VILANTEROL] | > 30 µM | 26 µM | > 30 µM | > 30 µM | > 30 µM | > 30 µM | > 30 µM | > 30 µM | > 30 µM | > 30 µM |
